Source: EP4610269A1, “UROKINASE PLASMINOGEN ACTIVATOR SURFACE RECEPTOR (UPAR) LIGANDS FOR DIAGNOSTIC OR THERAPEUTIC USE” (3B Pharmaceuticals GmbH, priority 2024, dated 2025)
Where a SMILES comes first, the peptide text is derived from it. Bridges are numbered along the chain shown (N, C = ends). [ ]: non-standard residue; d: D form. The star is where a group is joined. DOTA = O=C(O)CN1CCN(CC(=O)O)CCN(CC(=O)*)CCN(CC(=O)O)CC1; Lys(Me3) = C[N+](C)(C)CCCC[C@H](N)C(=O)O; Pro(cis-4-F) = O=C(O)[C@@H]1C[C@H](F)CN1; Pro(4R-NH2) = N[C@H]1CN[C@H](C(=O)O)C1; Hyp = O=C(O)[C@@H]1C[C@@H](O)CN1; hArg = N=C(N)NCCCC[C@H](N)C(=O)O; 3Pal = N[C@@H](Cc1cccnc1)C(=O)O; Pentanoyl(4-Me) = CC(C)CCC(=O)*; Cit = NC(=O)NCCC[C@H](N)C(=O)O; αMeL = CC(C)C[C@](C)(N)C(=O)O; Butoxycarbonyl = CCCCOC(=O)*; Api = NC1(C(=O)O)CCNCC1; Nva = CCC[C@H](N)C(=O)O; Pentanoyl = CCCCC(=O)*

Legend:
human uPAR (uPAR-Fc) = target: T1, human uPAR (uPAR-Fc) (Homo sapiens, UniProt Q03405); test: Surface plasmon resonance (SPR) assay, single cycle kinetics; type: binding; conditions: pKD category for uPAR SPR activity assay; uPAR-Fc on Protein A-Chip, 25°C; read-out: pKD CAT (converted)
T1 construct: comprising amino acids Leu23-Arg303 according to UniProt entry Q03405.1; purchased R&D Systems 10378-UK-100
T1 sequence (Q03405 23-303): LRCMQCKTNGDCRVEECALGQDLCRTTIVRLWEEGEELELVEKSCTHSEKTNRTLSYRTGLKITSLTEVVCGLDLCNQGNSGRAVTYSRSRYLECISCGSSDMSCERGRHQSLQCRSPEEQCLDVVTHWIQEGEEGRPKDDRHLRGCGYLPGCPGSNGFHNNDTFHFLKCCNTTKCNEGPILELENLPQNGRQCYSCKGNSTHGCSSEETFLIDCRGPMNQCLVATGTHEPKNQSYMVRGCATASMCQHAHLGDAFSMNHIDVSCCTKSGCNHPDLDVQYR
In short: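 uPAR-Fc (Leu23-Arg303 extracellular domains, human IgG1 Fc) captured on Protein A chip to ~2000 RU; single-cycle kinetics at 25°C in HEPES running buffer pH 7.4 with 0.1% DMSO. KD from double-referenced sensorgrams fitted to 1:1 Langmuir model, reported as pKD.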

[1] = target: T2, uPAR-expressing HEC-265 human endometrial adenocarcinoma cells (Homo sapiens, UniProt Q03405); test: Competitive FACS binding assay; conditions: pIC50 category of FACS binding
T2 construct: Cell surface uPAR-expressing HEC-265 human endometrial adenocarcinoma cells; host or cells: HEC-265
T2 sequence (Q03405 23-335): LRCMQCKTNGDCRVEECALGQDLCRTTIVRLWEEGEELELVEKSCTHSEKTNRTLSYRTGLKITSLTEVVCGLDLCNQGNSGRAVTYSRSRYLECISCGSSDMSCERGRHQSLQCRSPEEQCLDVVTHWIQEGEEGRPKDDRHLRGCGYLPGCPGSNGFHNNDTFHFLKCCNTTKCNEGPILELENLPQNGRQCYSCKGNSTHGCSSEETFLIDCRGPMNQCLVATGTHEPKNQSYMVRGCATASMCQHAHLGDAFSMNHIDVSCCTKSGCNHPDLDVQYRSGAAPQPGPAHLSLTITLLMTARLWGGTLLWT
In short: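 HEC-265 cells incubated 1 h at 4 °C with 10 nM biotinylated uPAR peptide tracer plus increasing test compound, then stained with APC-streptavidin on ice. Median APC fluorescence by flow cytometry; 4PL fit gives pIC50.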

| Kd (human uPAR (uPAR-Fc)) | IC50 [1] | Structure (SMILES) |
| --- | --- | --- |
| < 1.58 nM | ≤ 10 nM | CC[C@H](C)[C@@H]1NC(=O)C2(CCN(C(=O)CN3CCN(CC(=O)O)CCN(CC(=O)O)CCN(CC(=O)O)CC3)CC2)NC(=O)[C@@H]2CCCN2C(=O)[C@H](Cc2ccccc2)NC(=O)[C@H](Cc2ccc(O)cc2)NC(=O)[C@H](CCC(N)=O)NC(=O)[C@H](CCCNC(=N)N)NC(=O)[C@@H](NC(=O)CCC(C)C)CSSC[C@@H](C(N)=O)NC(=O)[C@H](CC(C)C)NC1=O [UPAR-152, iHex-[Cys-Arg-Gln-Tyr-Phe-Pro-Apc(DOTA)-Ile-Leu-Cys]-NH2] ({Pentanoyl(4-Me)}-CRQYFP[Api](DOTA)ILC-NH2; disulfide 1-10) |
| < 1.58 nM | ≤ 10 nM | CCCCC(=O)N[C@H]1CSSC[C@@H](C(N)=O)NC(=O)[C@H](CCC)NC(=O)[C@H]([C@@H](C)CC)NC(=O)[C@@H]2C[C@@H](O)CN2C(=O)[C@@H]2CCCN2C(=O)[C@H](Cc2ccccc2)NC(=O)[C@H](Cc2ccc(O)cc2)NC(=O)[C@H](CCCCNC(=O)CN2CCN(CC(=O)O)CCN(CC(=O)O)CCN(CC(=O)O)CC2)NC(=O)[C@H](CCCC[N+](C)(C)C)NC1=O [UPAR-153, Pent-[Cys-KMe3-Lys(DOTA)-Tyr-Phe-Pro-Hyp-Ile-Nva-Cys]-NH2] (Pentanoyl-C[Lys(Me3)]K(DOTA)YFP[Hyp]I[Nva]C-NH2; disulfide 1-10) |
| < 1.58 nM | ≤ 10 nM | CCCCC(=O)N[C@H]1CSSC[C@@H](C(N)=O)NC(=O)[C@H](CCC)NC(=O)[C@H]([C@@H](C)CC)NC(=O)[C@H](CO)NC(=O)[C@@H]2CCCN2C(=O)[C@H](Cc2ccccc2)NC(=O)[C@H](Cc2ccc(O)cc2)NC(=O)[C@H](CCC(N)=O)NC(=O)[C@H](CCCNC(=N)N)NC1=O [UPAR-154, Pent-[Cys-Arg-Gln-Tyr-Phe-Pro-Ser-Ile-Nva-Cys]-NH2] (Pentanoyl-CRQYFPSI[Nva]C-NH2; disulfide 1-10) |
| 1.58 to 10 nM | 12.6 to 31.6 nM | CCCCC(=O)N[C@H]1CSSC[C@@H](C(N)=O)NC(=O)[C@](C)(CC(C)C)NC(=O)[C@H]([C@@H](C)CC)NC(=O)[C@@H]2C[C@@H](O)CN2C(=O)[C@@H]2CCCN2C(=O)[C@H](Cc2ccccc2)NC(=O)[C@H](Cc2ccc(O)cc2)NC(=O)[C@H](CCC(N)=O)NC(=O)[C@H](CCCNC(=N)N)NC1=O [UPAR-156, Pent-[Cys-Arg-Gln-Tyr-Phe-Pro-Hyp-Ile-Aml-Cys]-NH2] (Pentanoyl-CRQYFP[Hyp]I[αMeL]C-NH2; disulfide 1-10) |
| < 1.58 nM | ≤ 10 nM | CC[C@H](C)[C@@H]1NC(=O)[C@@H](C)NC(=O)[C@@H]2CCCN2C(=O)[C@H](Cc2ccccc2)NC(=O)[C@H](Cc2ccc(O)cc2)NC(=O)[C@H](CCC(N)=O)NC(=O)[C@H](CCCCNC(=O)CN2CCN(CC(=O)O)CCN(CC(=O)O)CCN(CC(=O)O)CC2)NC(=O)[C@@H](NC(=O)CCC(C)C)CSSC[C@@H](C(N)=O)NC(=O)[C@H](CC(C)C)NC1=O [UPAR-157, iHex-[Cys-Lys(DOTA)-Gln-Tyr-Phe-Pro-ala-Ile-Leu-Cys]-NH2] ({Pentanoyl(4-Me)}-CK(DOTA)QYFP[dA]ILC-NH2; disulfide 1-10) |
| > 100 nM | ≥ 126 nM | CC[C@H](C)[C@@H]1NC(=O)[C@@H](C)NC(=O)[C@@H]2CCCN2C(=O)[C@H](Cc2ccccc2)NC(=O)[C@H](C)NC(=O)[C@H](CCC(N)=O)NC(=O)[C@H](CCCNC(N)=O)NC(=O)[C@@H](NC(=O)CCC(C)C)CSSC[C@@H](C(N)=O)NC(=O)[C@H](CC(C)C)NC1=O [UPAR-159, iHex-[Cys-Cit-Gln-Ala-Phe-Pro-ala-Ile-Leu-Cys]-NH2] ({Pentanoyl(4-Me)}-C[Cit]QAFP[dA]ILC-NH2; disulfide 1-10) |
| < 1.58 nM | ≤ 10 nM | CC[C@H](C)[C@@H]1NC(=O)[C@@H](C)NC(=O)[C@@H]2CCCN2C(=O)[C@H](Cc2ccccc2)NC(=O)[C@H](Cc2ccc(O)cc2)NC(=O)[C@H](CCCNC(=N)N)NC(=O)[C@H](CCCNC(N)=O)NC(=O)[C@@H](NC(=O)CCC(C)C)CSSC[C@@H](C(N)=O)NC(=O)[C@H](CC(C)C)NC1=O [UPAR-160, iHex-[Cys-Cit-Arg-Tyr-Phe-Pro-ala-Ile-Leu-Cys]-NH2] ({Pentanoyl(4-Me)}-C[Cit]RYFP[dA]ILC-NH2; disulfide 1-10) |
| 10 to 100 nM | ≤ 10 nM | CCCCC(=O)N[C@H]1CSSC[C@@H](C(N)=O)NC(=O)[C@H](CCC)NC(=O)[C@H]([C@@H](C)CC)NC(=O)[C@@H](CC(=O)O)NC(=O)[C@@H]2CCCN2C(=O)[C@H](Cc2ccccc2)NC(=O)[C@H](Cc2ccc(O)cc2)NC(=O)[C@H](CCC(N)=O)NC(=O)[C@H](CCCNC(=N)N)NC1=O [UPAR-161, Pent-[Cys-Arg-Gln-Tyr-Phe-Pro-asp-Ile-Nva-Cys]-NH2] (Pentanoyl-CRQYFP[dD]I[Nva]C-NH2; disulfide 1-10) |
| < 1.58 nM | ≤ 10 nM | CC[C@H](C)[C@@H]1NC(=O)[C@@H](C)NC(=O)[C@@H]2CCCN2C(=O)[C@H](Cc2ccccc2)NC(=O)[C@H](Cc2ccc(O)cc2)NC(=O)[C@H](CCCCNC(=O)CN2CCN(CC(=O)O)CCN(CC(=O)O)CCN(CC(=O)O)CC2)NC(=O)[C@H](CCCNC(=N)N)NC(=O)[C@@H](NC(=O)[C@H](CC(C)C)NC(C)=O)CSSC[C@@H](C(N)=O)NC(=O)[C@H](CC(C)C)NC1=O [UPAR-162, Ac-Leu-[Cys-Arg-Lys(DOTA)-Tyr-Phe-Pro-ala-Ile-Leu-Cys]-NH2] (Ac-LCRK(DOTA)YFP[dA]ILC-NH2; disulfide 2-11) |
| 1.58 to 10 nM | 12.6 to 31.6 nM | CC[C@H](C)[C@@H]1NC(=O)[C@@H](C)NC(=O)[C@@H]2C[C@@H](N)CN2C(=O)[C@H](Cc2ccccc2)NC(=O)[C@H](Cc2ccc(O)cc2)NC(=O)[C@H](CCC(N)=O)NC(=O)[C@H](CCCNC(N)=O)NC(=O)[C@@H](NC(=O)CCC(C)C)CSSC[C@@H](C(N)=O)NC(=O)[C@H](CC(C)C)NC1=O [UPAR-163, iHex-[Cys-Cit-Gln-Tyr-Phe-Tap-ala-Ile-Leu-Cys]-NH2] ({Pentanoyl(4-Me)}-C[Cit]QYF[Pro(4R-NH2)][dA]ILC-NH2; disulfide 1-10) |
| > 100 nM | ≥ 126 nM | CC(C)CCC(=O)N[C@H]1CSSC[C@@H](C(N)=O)NC(=O)[C@H](CC(C)C)NC(=O)[C@H](C)NC(=O)[C@@H](C)NC(=O)[C@@H]2CCCN2C(=O)[C@H](Cc2ccccc2)NC(=O)[C@H](Cc2ccc(O)cc2)NC(=O)[C@H](CCC(N)=O)NC(=O)[C@H](CCCNC(N)=O)NC1=O [UPAR-164, iHex-[Cys-Cit-Gln-Tyr-Phe-Pro-ala-Ala-Leu-Cys]-NH2] ({Pentanoyl(4-Me)}-C[Cit]QYFP[dA]ALC-NH2; disulfide 1-10) |
| < 1.58 nM | ≤ 10 nM | CC[C@H](C)[C@@H]1NC(=O)[C@@H]2C[C@@H](O)CN2C(=O)[C@@H]2CCCN2C(=O)[C@H](Cc2ccccc2)NC(=O)[C@H](Cc2ccc(O)cc2)NC(=O)[C@H](CCC(N)=O)NC(=O)[C@H](CCCCNC(=N)N)NC(=O)[C@@H](NC(=O)CCC(C)C)CSSC[C@@H](C(N)=O)NC(=O)[C@H](CC(C)C)NC1=O [UPAR-167, iHex-[Cys-Har-Gln-Tyr-Phe-Pro-Hyp-Ile-Leu-Cys]-NH2] ({Pentanoyl(4-Me)}-C[hArg]QYFP[Hyp]ILC-NH2; disulfide 1-10) |
| < 1.58 nM | ≤ 10 nM | CC[C@H](C)[C@@H]1NC(=O)[C@@H](C)NC(=O)[C@@H]2CCCN2C(=O)[C@H](Cc2ccccc2)NC(=O)[C@H](Cc2ccc(O)cc2)NC(=O)[C@H](CCC(N)=O)NC(=O)[C@H](C)NC(=O)[C@@H](NC(=O)CCC(C)C)CSSC[C@@H](C(N)=O)NC(=O)[C@H](CC(C)C)NC1=O [UPAR-168, iHex-[Cys-Ala-Gln-Tyr-Phe-Pro-ala-Ile-Leu-Cys]-NH2] ({Pentanoyl(4-Me)}-CAQYFP[dA]ILC-NH2; disulfide 1-10) |
| 1.58 to 10 nM | 12.6 to 31.6 nM | CCCCC(=O)N[C@H]1CSSC[C@@H](C(N)=O)NC(=O)[C@H](Cc2ccccc2)NC(=O)[C@H]([C@@H](C)CC)NC(=O)[C@@H]2C[C@@H](O)CN2C(=O)[C@@H]2CCCN2C(=O)[C@H](Cc2ccccc2)NC(=O)[C@H](Cc2ccc(O)cc2)NC(=O)[C@H](CCC(N)=O)NC(=O)[C@H](CCCNC(=N)N)NC1=O [UPAR-171, Pent-[Cys-Arg-Gln-Tyr-Phe-Pro-Hyp-Ile-Phe-Cys]-NH2] (Pentanoyl-CRQYFP[Hyp]IFC-NH2; disulfide 1-10) |

| Structure (SMILES) | Kd (human uPAR (uPAR-Fc)) | IC50 [1] |
| --- | --- | --- |
| CCCCOC(=O)N[C@H]1CSSC[C@@H](C(N)=O)NC(=O)[C@H](CC(C)C)NC(=O)[C@H]([C@@H](C)CC)NC(=O)[C@@H](C)NC(=O)[C@@H]2CCCN2C(=O)[C@H](Cc2ccccc2)NC(=O)[C@H](Cc2ccc(O)cc2)NC(=O)[C@H](CCC(N)=O)NC(=O)[C@H](CCCNC(N)=O)NC1=O [UPAR-155, Butoc-[Cys-Cit-Gln-Tyr-Phe-Pro-ala-Ile-Leu-Cys]-NH2] (Butoxycarbonyl-C[Cit]QYFP[dA]ILC-NH2; disulfide 1-10) | < 1.58 nM | ≤ 10 nM |
| CCCCOC(=O)N[C@H]1CSSC[C@@H](C(N)=O)NC(=O)[C@H](CCC)NC(=O)[C@H]([C@@H](C)CC)NC(=O)[C@@H]2C[C@@H](O)CN2C(=O)[C@@H]2C[C@H](F)CN2C(=O)[C@H](Cc2ccccc2)NC(=O)[C@H](Cc2cccnc2)NC(=O)[C@H](CCCCNC(=O)CN2CCN(CC(=O)O)CCN(CC(=O)O)CCN(CC(=O)O)CC2)NC(=O)[C@H]([C@@H](C)O)NC1=O [UPAR-165, Butoc-[Cys-Thr-Lys(DOTA)-Mpa-Phe-4Cfp-Hyp-Ile-Nva-Cys]-NH2] (Butoxycarbonyl-CTK(DOTA)[3Pal]F[Pro(cis-4-F)][Hyp]I[Nva]C-NH2; disulfide 1-10) | < 1.58 nM | ≤ 10 nM |
